The source of these data is patent publication US11203615B2, “Cancer treatment drug” (NATIONAL UNIVERSITY CORPORATION HOKKAIDO UNIVERSITY, priority 2017, dated 2021).

The inhibition is the drop in the measured response relative to a control, in per cent.

Data set [1] addresses T1, C16orf74 protein dimer (Homo sapiens, UniProt Q96GX8). Briefly: Inhibition of dimer formation of C16orf74 protein in human pancreatic cancer cells and NHDFs (FIG. 3). It counts as cell-based. Set-up: PK-1 and PK-9 (C16orf14 high expression) are compared to Panc1 and Miapaca2 (low expression); endogenous in cells; host or cells: PK-1, PK-9, Panc-1, Miapaca-2, NHDF. As to the method: The same experiment as the above (3) was conducted by using the peptide RRRRRRRRRRR-GGG-MGLKMSCLKGFQMCV (SEQ ID NO: 4) (represented as 11R-C16orf74-DB in FIG. 3(a)), the peptide RRRRRRRRRRR-GGG-MGLKMSALKGFQMAV (SEQ ID NO: 7) (represented as 11R-C16orf74 C7A-C14A in FIG. 3(b)), and the peptide RRRRRRRRRRR-GGG-MGLKMAAAKGFQAAA (SEQ ID NO: 8) (represented as 11R-C16orf74-6-8A-13-15A in FIG. 3(c)) with different concentrations to examine inhibition of the dimer formation of C16orf74 protein. For the cells, four types of human pancreatic cancer cells (PK-1, PK-9, Panc-1, Miapaca-2) and normal human dermal fibroblasts (NHDFs) were used. The results are shown in FIGS. 3(a), 3(b), and 3(c), which are 24 hour WST assays in which PK-1 and PK-9 (C16orf14 high expression) are compared to Panc1 and Miapaca2 (low expression). A p-value of p<0.05 was obtained at 30 μM.

In data set [2] the test system is Human pancreatic cancer cells (PK-9). Nature of the data set: Tumor growth in nude mice with PK-9 cells transplanted on the back, intraperitoneal administration. It counts as in vivo, nude mouse. As to conditions: i.p. five times per week, day 7 to day 35 after transplantation. As to the method:
Human pancreatic cancer cells (PK-9) were transplanted to the back of each nude mouse (Balb/cA Jcl nu/nu mice, female, distributor: CLEA Japan, Inc.). The peptide of the present invention RRRRRRRRRRR-GGG-MGLKMSCLKGFQMCV (SEQ ID NO: 4), the peptide RRRRRRRRRRR-GGG-MGLKMAAAKGFQAAA (SEQ ID NO: 8), or PBS was intraperitoneally administered five times per week from day 7 to day 35 after the transplantation. During this period, body weight and tumor volume of the animals were measured, and fluorescence images were taken. On day 35 after the transplantation, tumor was resected, and the weight was measured. […] The mean tumor weight was approximately 50 mg for the group with administration of the peptide of the present invention (represented as DB in FIG. 6), and, by contrast, approximately 100 mg to 110 mg for the other two groups.

The target in data set [3] is T1, C16orf74 protein dimer. Briefly: Inhibition of dimer formation of C16orf74 protein, pull-down assay in cotransfected HEK293T cells. It counts as cell-based. As to conditions: 40 μM peptide, 24 hours. As to the method: Pull-down assay was used for this verification. HEK293T cells were cotransfected with a vector to express a protein of Flag-tagged C16orf74 protein (pCAGGS-C16orf74-3×Flag) and a vector to express a protein of HA-tagged C16orf74 protein (pCAGGS-C16orf74-HA), and 24 hours thereafter a cell lysate was obtained and immunoprecipitation was carried out with agarose beads with an HA antibody attached thereto. The resulting immunoprecipitate was subjected to electrophoresis, and blotted with a Flag antibody. Experiment was conducted in three parallel systems. In the figure, MOCK represents a case that empty vectors of pCAGGS were provided with a Flag tag and an HA tag and HEK293T cells were cotransfected therewith. A band of the Flag-tagged C16orf74 protein was found at an intended level ([…]).
HEK293T cells were transfected with pCAGGS-C16orf74-3×Flag and pCAGGS-C16orf74-HA, and cultured in the presence and absence of 40 μM of the peptide RRRRRRRRR-GGG-MGLKMSCLKGFQMCV (SEQ ID NO: 6) for 24 hours, and thereafter a band of the dimer was detected in the same manner as descried in (1).

The test system of a further data set is PK-9 cells. Nature of the data set: Tumor growth in nude mice with subcutaneously injected PK-9 cells, peritumoral subcutaneous injection. It counts as in vivo. The settings on record: 10 mg/kg/mouse s.c. near tumor five times per week, 3 weeks. As to the method:
PK-9 cells were injected into the back of each nude mouse (Balb/cA Jcl nu/nu mice, female, distributor: CLEA Japan, Inc.). Two weeks after the injection, the peptide of the present invention RRRRRRRRRRR-GGG-MGLKMSCLKGFQMCV (SEQ ID NO: 4), the peptide RRRRRRRRRRR-GGG-MGLKMAAAKGFQAAA (SEQ ID NO: 8), or PBS was injected into the subcutaneous tissue in the vicinity of tumor five times per week (10 mg/kg/mouse). The administration period was 3 weeks. At the end of the administration period, tumor was resected and the tumor weight was measured. […] The mean tumor weight of the group with administration of the peptide of the present invention (SEQ ID NO: 4) was approximately 250 mg (group 11R-DB in FIG. 8).

Data set [4] relates to PK-9 cells expressing luciferase (PK-9-td Tomato-luc2). Briefly: Tumor survival and nodulation in nude mice with peritoneally disseminated PK-9-td Tomato-luc2 cells. As to conditions: 1 mg/kg/mouse five times per week, day 0 to day 35; imaging days 3-35. It counts as in vivo. As to the method: PK-9 cells expressing luciferase (PK-9-td Tomato-luc2) were intraperitoneally injected into each nude mouse (Balb/cA Jcl nu/nu mice, female, distributor: CLEA Japan, Inc.). During a period from the day of the peritoneal dissemination to day 35, the peptide of the present invention RRRRRRRRRRR-GGG-MGLKMSCLKGFQMCV (SEQ ID NO: 4), the peptide RRRRRRRRRRR-GGG-MGLKMAAAKGFQAAA (SEQ ID NO: 8), or PBS was injected into the subcutaneous tissue in the vicinity of tumor five times per week (1 mg/kg/mouse). On days 3, 7, 14, 21, 28, and 35 after the peritoneal dissemination, tumor was imaged. The number of nodules was counted at the end of the peptide administration period.

Residues, ends and D or L forms follow the SMILES beside them.

T1 sequence (Q96GX8 whole entry): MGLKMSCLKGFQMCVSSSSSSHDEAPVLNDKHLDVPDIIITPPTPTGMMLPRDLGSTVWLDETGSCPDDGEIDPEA

`CSCC[C@H](NC(=O)CNC(=O)CNC(=O)CNC(=O)[C@H](CCCNC(=N)N)NC(=O)[C@H](CCCNC(=N)N)NC(=O)[C@H](CCCNC(=N)N)NC(=O)[C@H](CCCNC(=N)N)NC(=O)[C@H](CCCNC(=N)N)NC(=O)[C@H](CCCNC(=N)N)NC(=O)[C@H](CCCNC(=N)N)NC(=O)[C@H](CCCNC(=N)N)NC(=O)[C@H](CCCNC(=N)N)NC(=O)[C@H](CCCNC(=N)N)NC(=O)[C@@H](N)CCCNC(=N)N)C(=O)NCC(=O)N[C@@H](CC(C)C)C(=O)N[C@@H](CCCCN)C(=O)N[C@@H](CCSC)C(=O)N[C@@H](CO)C(=O)N[C@@H](CS)C(=O)N[C@@H](CC(C)C)C(=O)N[C@@H](CCCCN)C(=O)NCC(=O)N[C@@H](Cc1ccccc1)C(=O)N[C@@H](CCC(N)=O)C(=O)N[C@@H](CCSC)C(=O)N[C@@H](CS)C(=O)N[C@H](C(=O)O)C(C)C` [SEQ ID NO: 4, RRRRRRRRRRR-GGG-MGLKMSCLKGFQMCV] (H-RRRRRRRRRRRGGGMGLKMSCLKGFQMCV-OH): the inhibition at 40 µM on C16orf74 protein dimer [1] (MIA PaCa-2, Miapaca2 cells) is at least 60%; against C16orf74 protein dimer [1] (PANC-1, Panc1 cells), at least 60%. For the same molecule, the inhibition at 30 µM on C16orf74 protein dimer [1] (PK9, PK-9 cells) is around 60%; against C16orf74 protein dimer [1] (PK-1 cells), around 60%. Moreover, in data set [2], the “body weight of the animals” value is recorded as “exhibited a higher increasing tendency than the other administration groups”.
In the case of “RRRRRRRRR-GGG-MGLKMSCLKGFQMCV (RRRRRRRRRGGGMGLKMSCLKGFQMCV; fusion peptide) [SEQ ID NO: 6, C16orf74 N-terminal 15 amino acids bonded to 9-arginine signal via a GGG tag]”, the “inhibition of dimer formation of C16orf74 protein (band of the dimer)” value with C16orf74 protein dimer [3] is listed as “the dimer formation was inhibited”.
As to “RRRRRRRRRRR-GGG-MGLKMAAAKGFQAAA (RRRRRRRRRRRGGGMGLKMAAAKGFQAAA; fusion peptide) [SEQ ID NO: 8, control peptide, cysteines 7 and 14 and their neighbouring residues converted into alanine]”, the “course of tumor volume” value in the data set on PK-9 cells is recorded as “the tumor volume increased”. Also, in data set [4], the “survival of tumor cells (tumor imaging)” value was “The survival of tumor cells was not suppressed”. In addition, the “inhibition of the dimer formation” value with C16orf74 protein dimer [1] (any of the cells (PK-1, PK-9, Panc-1, Miapaca-2, NHDFs)) is listed as “no inhibition of the dimer formation was found”. Also, the “change over time in tumor fluorescence intensity” value in data set [2] is recorded as “exhibited increase in fluorescence intensity”.
In the case of “RRRRRRRRRRR-GGG-MGLKMSALKGFQMAV (RRRRRRRRRRRGGGMGLKMSALKGFQMAV; fusion peptide) [SEQ ID NO: 7, control peptide, cysteine residues at 7th and 14th positions converted into alanine]”, the “inhibition of the dimer formation” value is “the inhibition was weaker than in using 11R-C16orf74-DB” with C16orf74 protein dimer [1] (PK-1 and PK-9 cells); “Almost no inhibition of the dimer formation was found” with C16orf74 protein dimer [1] (Panc1, Miapaca2 and NHDFs).
